Test system: 636577-100-R-J1-PDC complex spheroid viability
Assay: Anticancer human tumor 636577-100-R-J1-PDC patient-derived endometrial adenocarcinoma cell line growth inhibition [GQUAD]
Conditions: for IC50: curve of first compound; for viability, T/C: stronger effect = lower value; active means viability on the fitted dose curve at most 10% of control; inactive means the rest
Outline: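 Multi-cell-type spheroids of tumor cells with HUVEC and mesenchymal stem cells, treated with drug combinations. Concentrations descend in half-log steps from near clinical Cmax, or from 10 microM where Cmax is unknown; viability read-out.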

[1] = second compound 0.0316 µM, first compound 0.0316 µM
[2] = second compound 0.0316 µM, first compound 0.316 µM
[3] = second compound 0.1 µM, first compound 0.0316 µM
[4] = second compound 0.1 µM, first compound 0.316 µM
[5] = second compound 0.316 µM, first compound 0.0316 µM
[6] = second compound 0.316 µM, first compound 0.316 µM
[7] = second compound 1 µM, first compound 0.0316 µM
[8] = second compound 1 µM, first compound 0.316 µM
[9] = second compound 3.16 µM, first compound 0.0316 µM
[10] = second compound 3.16 µM, first compound 0.316 µM
[11] = second compound 10 µM, first compound 0.0316 µM
[12] = second compound 10 µM, first compound 0.316 µM
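Further: viability read after seven days of drug exposure.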
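Wherever viability, T/C is given: luminescence signal used as a proxy for viable cells; 100% = DMSO vehicle control wells.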

COc1ccc([C@@H](O)c2cc(-c3ncnc4cc(N5CCOCC5)ccc34)c(F)cc2Cl)nn1 + Cc1cnc(CNC(=O)c2c(=O)c3ccc(N4CCCN(C)CC4)nc3n3c2sc2ccccc23)cn1
active: viability, T/C (second compound 0.0316 µM, first compound 3.16 µM) 9.47% | viability, T/C (second compound 0.0316 µM, first compound 10 µM) 9.92%
inactive: viability, T/C [1] 47.1% | viability, T/C (second compound 0.0316 µM, first compound 0.1 µM) 42.8% | viability, T/C [2] 20% | viability, T/C (second compound 0.0316 µM, first compound 1 µM) 10.8% | viability, T/C [3] 30.6% | viability, T/C (second compound 0.1 µM, first compound 0.1 µM) 22% | viability, T/C [4] 15.2% | viability, T/C (second compound 0.1 µM, first compound 1 µM) 12.2% | viability, T/C (second compound 0.1 µM, first compound 3.16 µM) 13.5% | viability, T/C (second compound 0.1 µM, first compound 10 µM) 11.6% | viability, T/C [5] 22.8% | viability, T/C (second compound 0.316 µM, first compound 0.1 µM) 21.2% | viability, T/C [6] 13% | viability, T/C (second compound 0.316 µM, first compound 1 µM) 13.2% | viability, T/C (second compound 0.316 µM, first compound 3.16 µM) 13.6% | viability, T/C (second compound 0.316 µM, first compound 10 µM) 12.8% | viability, T/C [7] 18.2% | viability, T/C (second compound 1 µM, first compound 0.1 µM) 18.3% | viability, T/C [8] 13.8% | viability, T/C (second compound 1 µM, first compound 1 µM) 15.4% | viability, T/C (second compound 1 µM, first compound 3.16 µM) 14.1% | viability, T/C (second compound 1 µM, first compound 10 µM) 10.8% | viability, T/C [9] 20.3% | viability, T/C (second compound 3.16 µM, first compound 0.1 µM) 17.9% | viability, T/C [10] 18% | viability, T/C (second compound 3.16 µM, first compound 1 µM) 16.1% | viability, T/C (second compound 3.16 µM, first compound 3.16 µM) 16.6% | viability, T/C (second compound 3.16 µM, first compound 10 µM) 13.6% | viability, T/C [11] 19.5% | viability, T/C (second compound 10 µM, first compound 0.1 µM) 21.2% | viability, T/C [12] 19.6% | viability, T/C (second compound 10 µM, first compound 1 µM) 18.5% | viability, T/C (second compound 10 µM, first compound 3.16 µM) 16.5% | viability, T/C (second compound 10 µM, first compound 10 µM) 14.5%
< 31.6 nM: IC50 (second compound 0.0316 µM) | IC50 (second compound 0.1 µM) | IC50 (second compound 0.316 µM) | IC50 (second compound 1 µM) | IC50 (second compound 3.16 µM) | IC50 (second compound 10 µM)

Cc1[nH]c2ccccc2c1CCNCc1ccc(/C=C/C(=O)NO)cc1 + Cc1cnc(CNC(=O)c2c(=O)c3ccc(N4CCCN(C)CC4)nc3n3c2sc2ccccc23)cn1
< 0.999 nM: IC50 (second compound 0.0316 µM) | IC50 (second compound 0.1 µM) | IC50 (second compound 0.316 µM) | IC50 (second compound 1 µM) | IC50 (second compound 3.16 µM) | IC50 (second compound 10 µM)
active: viability, T/C (second compound 0.0316 µM, first compound 0.0999 µM) 6.33% | viability, T/C [2] 8.17% | viability, T/C (second compound 0.1 µM, first compound 0.0999 µM) 6.63% | viability, T/C [4] 8.31% | viability, T/C [6] 8.5% | viability, T/C (second compound 1 µM, first compound 0.0999 µM) 8.25% | viability, T/C [8] 8.1% | viability, T/C [10] 5.1% | viability, T/C (second compound 10 µM, first compound 0.0999 µM) 12.2% | viability, T/C [12] 0.15%
inactive: viability, T/C (second compound 0.0316 µM, first compound 0.000999 µM) 49.7% | viability, T/C (second compound 0.0316 µM, first compound 0.00316 µM) 28.9% | viability, T/C (second compound 0.0316 µM, first compound 0.00999 µM) 20.8% | viability, T/C [1] 12.3% | viability, T/C (second compound 0.1 µM, first compound 0.000999 µM) 32.3% | viability, T/C (second compound 0.1 µM, first compound 0.00316 µM) 22.8% | viability, T/C (second compound 0.1 µM, first compound 0.00999 µM) 24.6% | viability, T/C [3] 12.8% | viability, T/C (second compound 0.316 µM, first compound 0.000999 µM) 26.1% | viability, T/C (second compound 0.316 µM, first compound 0.00316 µM) 24.2% | viability, T/C (second compound 0.316 µM, first compound 0.00999 µM) 18.9% | viability, T/C [5] 13.2% | viability, T/C (second compound 0.316 µM, first compound 0.0999 µM) 9.48% | viability, T/C (second compound 1 µM, first compound 0.000999 µM) 21.1% | viability, T/C (second compound 1 µM, first compound 0.00316 µM) 20.9% | viability, T/C (second compound 1 µM, first compound 0.00999 µM) 18.7% | viability, T/C [7] 11.1% | viability, T/C (second compound 3.16 µM, first compound 0.000999 µM) 20.2% | viability, T/C (second compound 3.16 µM, first compound 0.00316 µM) 23.3% | viability, T/C (second compound 3.16 µM, first compound 0.00999 µM) 21.2% | viability, T/C [9] 12.3% | viability, T/C (second compound 3.16 µM, first compound 0.0999 µM) 10.4% | viability, T/C (second compound 10 µM, first compound 0.000999 µM) 22.6% | viability, T/C (second compound 10 µM, first compound 0.00316 µM) 24.1% | viability, T/C (second compound 10 µM, first compound 0.00999 µM) 20.1% | viability, T/C [11] 11.8%

— PubChem BioAssay AID2060504 (Molecular Pharmacology Branch, DTP, NCI, 2025)
